Test results from patent US10253002B2, “Compounds and methods of treating infections” (Neoculi Pty Ltd., priority 2013, dated 2019).
≈ marks a conversion by molar mass, not a printed value. Where “and” joins values, the source holds several entries; their conditions need not be identical. Identical values can stand only once. Like-named read-outs stand apart in the source and are kept apart here.

Legend:
MRSA = assay: Broth microdilution MIC, Example 7 (NCL812 and analogues); format: cell-based, Staphylococcus aureus; settings: for activity against MRSA among analogues: MIC testing, two MRSA strains; for MIC (μg/ml) at 24 hours, MRSA 1: MRSA 1, 24 hours; for MIC (μg/ml) at 24 hours, MRSA 2: MRSA 2, 24 hours; for MIC: Staphylococcus aureus; for MIC / MRSA: MRSA
Procedure, shortened: (§1)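 Duplicates per isolate, repeated a third time if >one two-fold dilution apart. MIC50, MIC20 and range calculated per bacterial group.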

VRE = assay: as above; format: cell-based, Enterococcus spp.; settings: for MIC: Enterococcus; for MIC / VRE: VRE; for activity against VRE among analogues: MIC testing, two VRE strains; for MIC (μg/ml) at 24 hours, VRE 2: VRE 2, 24 hours; for MIC (μg/ml) at 24 hours, VRE 1: VRE 1, 24 hours
Procedure, shortened: as §1

Escherichia coli = assay: as above; format: cell-based; settings: E. coli, 24 hours; for MIC: Escherichia coli, read-out: MIC (μg/ml) at 24 hours E. coli
Pseudomonas aeruginosa = assay: as above; format: cell-based; settings: for MIC: Pseudomonas aeruginosa, 24 h, read-out: MIC (μg/ml) at 24 hours P. aeruginosa, P. aeruginosa, 24 hours
[1] = Bioassay ranking of the analogues tested; settings: M + R (MRSA and VRE combined)
[2] = tested on: Staphylococcus aureus T3-129 / Staphylococcus spp. MK1; assay: Synergy studies, checkerboard method (FIC index); format: cell-based; settings: Staphylococcus spp. Strain MK1; for FICI: FIC index of antibiotic with NCL812; for Antibiotic MIC With NCL812: antibiotic in combination with NCL812; for Result (interaction with NCL812): antibiotic with NCL812
[3] = 24 h, read-out: MIC (μg/ml) at 24 hours MRSA 1, MRSA 1, 24 hours
[4] = 24 h, read-out: MIC (μg/ml) at 24 hours MRSA 2, MRSA 2, 24 hours
[5] = bioassay ranking, read-out: MRSA
[6] = 24 h, read-out: MIC (μg/ml) at 24 hours VRE 1, VRE 1, 24 hours
[7] = 24 h, read-out: MIC (μg/ml) at 24 hours VRE 2, VRE 2, 24 hours
[8] = bioassay ranking, read-out: VRE

SMILES	activity against MRSA among analogues (MRSA)	MIC (μg/ml) at 24 hours, MRSA 1 (MRSA)	MIC (μg/ml) at 24 hours, MRSA 2 (MRSA) [µg/mL]	MIC (MRSA; [3]) [µg/mL]	MIC (MRSA; [4]) [µg/mL]	MIC (MRSA; [5]) [µg/mL]	MIC (VRE; [6]) [µg/mL]	MIC (VRE; [7]) [µg/mL]	activity against VRE among analogues (VRE)	MIC (μg/ml) at 24 hours, VRE 2 (VRE)	MIC (Escherichia coli) [µg/mL]	MIC (Pseudomonas aeruginosa) [µg/mL]	M + R [1] [µg/mL]	MRSA (MRSA; bioassay ranking) [µg/mL]	MIC (μg/ml) at 24 hours, VRE 1 (VRE)	VRE (VRE; bioassay ranking) [µg/mL]	MIC (μg/ml) at 24 hours, E. coli (Escherichia coli) [µg/mL]	MIC (μg/ml) at 24 hours, P. aeruginosa (Pseudomonas aeruginosa) [µg/mL]	other results
Cc1ccc(/C=N/Nc2cc(N/N=C/c3ccc(C)cc3)nc(N)n2)cc1 [NCL195, 4,6-bis(2-((E)-4-methylbenzylidene)hydrazinyl)pyrimidin-2-amine]	greatest activity	2 µg/mL (≈ 5.56 µM)	2 (≈ 5.56 µM)	2 (≈ 5.56 µM)	2 (≈ 5.56 µM)	2 (≈ 5.56 µM)	4 (≈ 11.1 µM)	2 (≈ 5.56 µM)	greatest activity	4 µg/mL (≈ 11.1 µM)	> 128	> 128	2.75						MIC (VRE; [8]): 3.5 µg/mL (≈ 9.74 µM)
Nc1nc(N/N=C/c2cccc(O)c2)cc(N/N=C/c2cccc(O)c2)n1 [NCL197]	greatest activity	8 µg/mL (≈ 22 µM)	8 (≈ 22 µM)						greatest activity	8 µg/mL (≈ 22 µM)			7.5	8	8 µg/mL and 4 µg/mL	7	>128	>128	
Nc1nc(N/N=C/c2ccccc2O)cc(N/N=C/c2ccccc2O)n1 [NCL202]	greatest activity	8 µg/mL (≈ 22 µM)	8 (≈ 22 µM)						greatest activity	8 µg/mL (≈ 22 µM)			9	10	8 µg/mL (≈ 22 µM)	8	>128	>128	
Cl.Cl.Nc1nc(N/N=C/C2CCCCC2)cc(N/N=C/C2CCCCC2)n1 [NCL203]	greatest activity	32 µg/mL	64						greatest activity	32 µg/mL			44		32 µg/mL and 64 µg/mL		>128	>128	
CC(=NNC(=N)NN=C(C)c1ccc(Cl)cc1F)c1ccc(Cl)cc1F.Cl [NCL215]	greatest activity	8 µg/mL and 16 µg/mL	8						greatest activity	4 µg/mL and 8 µg/mL			7.25	10	2 µg/mL and 4 µg/mL	4.5	>128	>128	
Cl.N=C(N/N=C/c1ccc(Cl)cc1F)N/N=C/c1ccc(Cl)cc1F [NCL216]	greatest activity	2 µg/mL and 4 µg/mL	2						greatest activity	4 µg/mL			2.75	2.5	2 µg/mL	3	>128	>128	
C/C(=N\NC(=N)N/N=C(\C)c1ccc(C)cc1)c1ccc(C)cc1.Cl [NCL217]	greatest activity			4	4	4	2	4	greatest activity		> 128	> 128	3.5						MIC (VRE; [8]): 3 µg/mL
C/C(=N\NC(=N)N/N=C(\C)c1ccc(C(C)(C)C)cc1)c1ccc(C(C)(C)C)cc1.Cl [NCL219]	greatest activity			2	2	2	16	16	greatest activity		> 128	> 128	9						MIC (VRE; [8]): 16 µg/mL
Nc1nc(N/N=C/c2ccc(F)cc2)cc(N/N=C/c2ccc(F)cc2)n1 [NCL220]	greatest activity	16 µg/mL (≈ 43.6 µM)	16 (≈ 43.6 µM)						greatest activity	32 µg/mL (≈ 87.1 µM)			24	16	32 µg/mL (≈ 87.1 µM)	32	>128	>128	
Nc1nc(N/N=C/c2ccc(C(F)(F)F)cc2)cc(N/N=C/c2ccc(C(F)(F)F)cc2)n1 [NCL221]	greatest activity			4 (≈ 8.56 µM)	2 (≈ 4.28 µM)	3 (≈ 6.42 µM)	64 (≈ 137 µM)	64 (≈ 137 µM)	greatest activity		> 128	> 128	33.5						
CC1(C)S[C@@H]2[C@H](NC(=O)Cc3ccccc3)C(=O)N2[C@H]1C(=O)O [Penicillin G]																			FICI [2]: 1 and 0.625; Antibiotic MIC Alone [2]: 0.125 µg/mL and 0.25 µg/mL; Antibiotic MIC With NCL812 [2]: 0.062 µg/mL and 0.031 µg/mL; Result (interaction with NCL812) [2]: NE (No effect (NE) was defined as 0.5<FICI<4)
Cc1cc(NS(=O)(=O)c2ccc(N)cc2)no1 [Sulfamethoxazole]																			FICI [2]: 0.75 and 1; FIC1 ([2]; MIC of antibiotic in combination with NCL812/MIC of antibiotic alone): 0.5; Antibiotic MIC Alone [2]: 8 µg/mL; Antibiotic MIC With NCL812 [2]: 4 µg/mL; Result (interaction with NCL812) [2]: NE (No effect (NE) was defined as 0.5<FICI<4)
